# Reference: PubChem BioAssay AID1259408 (Genetic Toxicology Data Bank (GENE-TOX), 2018)
# Calls of active or inactive are those of the source. No rule for the calls is given here.
# Tested on: GENE-TOX genotoxicity assays, various organisms and cells
# Assay: GENE-TOX mutagenicity studies
# Description: GENE-TOX provides genetic toxicology (mutagenicity) test data from expert peer review of open scientific literature for more than 3,000 chemicals from the United States Environmental Protection Agency (EPA). GENE-TOX was established to select assay systems for evaluation, review data in the scientific literature, and recommend proper testing protocols and evaluation procedures for these systems.
# GENE-TOX covers the years 1991 - 1998. It is no longer updated.
# This is an archive assay for GENE-TOX mutagenicity studies.
smiles,measurement,setting,value
COc1ccc(-c2csc(N)n2)cc1,mutagenic call,"Species/Cell Type: Salmonella typhimurium, Serratia marcesens, Assay Type: Forward and reverse gene mutation, host-mediated assay, Assay Code: HM2T, Evaluation Type: Evaluation A (Pre-1980)",no conclusion
[Cu+].[Cu].[SH-],mutagenic call,"Species/Cell Type: Syrian hamster embryo (SA7/SHE) cells, Assay Type: Cell transformation, viral enhanced, Assay Code: CT7+, Evaluation Type: Evaluation A (Pre-1980)",active; positive
COc1ccc2c(ccc3c4c(ccc32)C(=O)CC4)c1,mutagenic call,"Species/Cell Type: Salmonella typhimurium (one or more of the five standard strains: TA98, TA100, TA1535, TA1537, and TA1538), Assay Type: Histidine reverse gene mutation, Ames assay, Assay Code: SALT, Evaluation Type: Evaluation A (Pre-1980)",no conclusion
CC[C@@H](CO)NCCN[C@@H](CC)CO,mutagenic call,"Species/Cell Type: Mammalian polychromatic erythrocytes, Assay Type: Micronucleus test, chromosome aberrations, Assay Code: MNT+U, Dose Response: Unconfirmed positive response, Evaluation Type: Evaluation B (Post-1980)",active; positive
CNNCc1ccc(C(=O)NC(C)C)cc1,mutagenic call,"Species/Cell Type: Drosophila melanogaster, Assay Type: Aneuploidy, partial sex chromosome loss, chromosome aberrations, Assay Code: DAP-M, Evaluation Type: Evaluation A (Pre-1980)",inactive; negative
same,mutagenic call,"Species/Cell Type: Drosophila melanogaster, Assay Type: Aneuploidy, whole sex chromosome loss, chromosome aberrations, Assay Code: DAC+M, Evaluation Type: Evaluation A (Pre-1980)",active; positive
same,mutagenic call,"Species/Cell Type: Drosophila melanogaster, Assay Type: Sex-linked recessive lethal gene mutation, Assay Code: SRL+, Evaluation Type: Evaluation A (Pre-1980)",active; positive
same,mutagenic call,"Species/Cell Type: Drosophila melanogaster, Sex: Male, Assay Type: Heritable translocation test, chromosome aberrations, Assay Code: DHT-, Evaluation Type: Evaluation A (Pre-1980)",inactive; negative
same,mutagenic call,"Species/Cell Type: Escherichia coli polA (W3119 vs P3478), Assay Type: Rec-assay, DNA effects (bacterial DNA repair), Assay Code: RE1+, Evaluation Type: Evaluation A (Pre-1980)",active; positive
same,mutagenic call,"Species/Cell Type: Fischer rat embryo (RLV/1706) cells, Assay Type: Cell transformation, viral enhanced, Assay Code: CTR+, Evaluation Type: Evaluation A (Pre-1980)",active; positive
same,mutagenic call,"Species/Cell Type: Human lymphocytes, Assay Type: Sister-chromatid exchange (SCE) in vitro, Assay Code: SCL+, Evaluation Type: Evaluation B (Post-1980)",active; positive
same,mutagenic call,"Species/Cell Type: Human, Assay Type: Sister-chromatid exchange (SCE) in vitro, Assay Code: SC1+, Evaluation Type: Evaluation B (Post-1980)",active; positive
same,mutagenic call,"Species/Cell Type: Mammalian polychromatic erythrocytes, Assay Type: Micronucleus test, chromosome aberrations, Assay Code: MNT+, Evaluation Type: Evaluation A (Pre-1980)",active; positive
same,mutagenic call,"Species/Cell Type: Mouse (BALB/c-3T3) cells, Assay Type: Cell transformation, Assay Code: CTB-, Evaluation Type: Evaluation A (Pre-1980)",inactive; negative
same,mutagenic call,"Species/Cell Type: Mouse lymphoma (L5178Y) cells, Assay Type: Forward gene mutation at the thymidine kinase (TK) locus, chromosome aberrations, Assay Code: L51+, Evaluation Type: Evaluation A (Pre-1980)",active; positive
same,mutagenic call,"Species/Cell Type: Mouse, Sex: Female, Assay Type: Spot test, gene mutation, Assay Code: MST+, Evaluation Type: Evaluation A (Pre-1980)",active; positive
same,mutagenic call,"Species/Cell Type: Mouse, Sex: Male, Assay Type: Heritable translocation test, chromosome aberrations, Assay Code: HTT+, Evaluation Type: Evaluation A (Pre-1980)",active; positive
same,mutagenic call,"Species/Cell Type: Mouse, Sex: Male, Assay Type: Specific locus test, gene mutation, Assay Code: SLT+, Evaluation Type: Evaluation A (Pre-1980)",active; positive
same,mutagenic call,"Species/Cell Type: Mouse, Sex: Male, Assay Type: Sperm morphology, Assay Code: SPI+, Evaluation Type: Evaluation A (Pre-1980)",active; positive
same,mutagenic call,"Species/Cell Type: Neurospora crassa, Assay Type: Forward gene mutation, Assay Code: NEF+, Evaluation Type: Evaluation A (Pre-1980)",active; positive
same,call,"Species/Cell Type: Nonhuman, Assay Type: In vivo carcinogenicity studies, Assay Code: CCG+, Evaluation Type: Evaluation A (Pre-1980)",active; positive
same,mutagenic call,"Species/Cell Type: Nonhuman, Assay Type: Sister-chromatid exchange (SCE) in vivo, Assay Code: SC3+D, Dose Response: With dose response, Evaluation Type: Evaluation A (Pre-1980)",active; positive
same,mutagenic call,"Species/Cell Type: Rabbit, Sex: Male, Assay Type: Sperm morphology, Assay Code: SPR+, Evaluation Type: Evaluation A (Pre-1980)",active; positive
same,mutagenic call,"Species/Cell Type: Rodents, Sex: Male, Assay Type: Dominant lethal test, Assay Code: DLT+, Evaluation Type: Evaluation A (Pre-1980)",active; positive
same,mutagenic call,"Species/Cell Type: Saccharomyces cerevisiae, Assay Type: Mitotic recombination or gene conversion, Assay Code: YEC+/-*, Activation: With metabolic activation, Evaluation Type: Evaluation A (Pre-1980)","inactive; positive without activation, negative with activation"
same,mutagenic call,"Species/Cell Type: Saccharomyces cerevisiae, Assay Type: Mitotic recombination or gene conversion, Assay Code: YEH+/-*, Activation: With metabolic activation, Evaluation Type: Evaluation A (Pre-1980)","inactive; positive without activation, negative with activation"
same,mutagenic call,"Species/Cell Type: Saccharomyces cerevisiae, Assay Type: Reverse gene mutation, Assay Code: YER+/-*, Activation: With metabolic activation, Evaluation Type: Evaluation A (Pre-1980)","inactive; positive without activation, negative with activation"
same,mutagenic call,"Species/Cell Type: Salmonella typhimurium (one or more of the five standard strains: TA98, TA100, TA1535, TA1537, and TA1538), Assay Type: Histidine reverse gene mutation, Ames assay, Assay Code: SAL-, Evaluation Type: Evaluation A (Pre-1980)",inactive; negative
same,mutagenic call,"Species/Cell Type: Salmonella typhimurium, Assay Type: Forward and reverse gene mutation, host-mediated assay, Assay Code: HMA+, Evaluation Type: Evaluation A (Pre-1980)",active; positive
same,mutagenic call,"Species/Cell Type: Syrian hamster embryo (SHE) cells, Assay Type: Cell transformation, clonal assay, Assay Code: CTC+, Evaluation Type: Evaluation A (Pre-1980)",active; positive
[Cl][Mo]([Cl])([Cl])([Cl])[Cl],mutagenic call,"Species/Cell Type: Bacillus subtilis (H17 vs M45), Assay Type: Rec-assay, spot test, DNA effects (bacterial DNA repair), Assay Code: REW-, Evaluation Type: Evaluation A (Pre-1980)",inactive; negative
CC1=C(/C=C/C(C)=C/C=C/C(C)=C/C=O)C(C)(C)CCC1,mutagenic call,"Species/Cell Type: Nonhuman, Assay Type: Sister-chromatid exchange (SCE) in vitro, Assay Code: SC2T, Evaluation Type: Evaluation B (Post-1980)",no conclusion
O=C(O)/C=C/c1ccc(O)c(O)c1,mutagenic call,"Species/Cell Type: Mammalian polychromatic erythrocytes, Assay Type: Micronucleus test, chromosome aberrations, Assay Code: MNTT, Evaluation Type: Evaluation B (Post-1980)",no conclusion
